From patent US20250283113A1, “COMPOSITIONS AND METHODS FOR INCREASING DELETION EFFICIENCY OF NUCLEIC ACID SEGMENT BY MODULATION OF NHEJ REPAIR PATHWAY” (GenKOre, Inc., priority 2022, published 2025)

How the values were obtained:
[1] = system: XRCC4; test: qRT-PCR of shRNA-mediated inhibition of NHEJ component gene expression (Example 3); type: cell-based, human; settings: AC16 cells, 5 μg shRNA plasmid, 3 days after transfection, FIG. 6
Experimental: (§1) Purification of total RNA was performed, and reverse transcription of total 1 μg RNA was performed with Superscript IV reverse transcriptase (INVITROGEN) using random hexamers. For real-time PCR, 1/20 of the RT product was amplified with the KAPA SYBR FAST qPCR kit (KAPA BIOSYSTEM, Wilmington, MA, USA) using the real-time cycler Quantstudio (THERMO FISHER SCIENTIFIC). The relative amount of mRNA transcripts was measured by the […]. GAPDH and 18s rRNA were used as endogenous controls.
(§2) 5 μg of plasmid vector encoding shRNA was prepared using All-in-one vector (Biofact), transfected into AC16 cells, and harvested 3 days after transfection. Then, mRNA expression of each NHEJ component gene was measured by qRT-PCR. […] The sequences of sense strands of the shRNAs used are described in Table 9.

[2] = system: XRCC4; test: Western blot of shRNA-mediated inhibition of NHEJ component gene expression (Example 4); type: cell-based, human; settings: AC16 cells, conditions as Example 3, FIG. 7
Experimental: (§3) Cell extracts were prepared by scraping cells with 60 to 80 μl of RIPA Lysis and Extraction Buffer (THERMOFISHER, 89900) containing protease inhibitor cocktail (ROCHE, 11836153001) at 4° C. and kept on ice for 10 minutes. The concentration of the cleared lysate was measured by Bradford assay (BIO-RAD), in which 20 to 65 μg of protein lysate, depending on the target protein, was loaded onto Mini-PROTEAN® TGX™ Precast Protein Gels (BIO-RAD), electrophoresed, and transferred to PVDF membranes using the Trans-Blot Turbo Transfer System (BIO-RAD). The membrane was incubated at room temperature for 1 hour in a blocking solution containing 5% non-fat dry milk in TBS-T and then incubated at 4° C. overnight with primary antibodies in TBS-T. After incubation with primary antibodies, the membrane was washed four times with TBS-T and then incubated at room temperature for 1 hour in a blocking solution containing anti-rabbit or anti-mouse immunoglobulin conjugated with HRP. The membrane was additionally washed four times with TBS-T and specific protein complexes were visualized with ECL prime (CYTIVA). Antibodies used were against KU70 (CST, 4588S), DNA ligase IV (CST, 146495), XLF (CST, 2854S), Artemis (CST, 13381), GAPDH (CST, 2118L), and XRCC4 (THERMO, MA5-24383).
(§4) shRNA-mediated inhibition of gene expression was analyzed by Western blot analysis. The experimental conditions were the same as in Example 3. […] As a result, the Western blot results were consistent with the qRT-PCR results.

[3] = system: Dclre1c; test: qRT-PCR of murine Dclre1c mRNA after shRNA treatment in Hepa-1c1c7 cells (Example 11); type: cell-based, mouse; settings: shRNA under U6 promoter, FIG. 14
Experimental: as §1
shRNAs for the Dclre1c gene encoding mouse Artemis protein were selected in Hepa-1c1c7 cells. The shRNAs, which are expressed under the U6 promoter, were generated, and qRT-PCR was performed to measure of the Dclre1c mRNA levels. […] The thus selected shRNAs can be used for in vivo studies using mouse models (for example, DMD mouse model with endogenous murine Dclre1c gene).

[4] = system: Dystrophin Exon 51, E51; test: Quantification of large-scale deletion of E51 by qPCR in HEK293T cells (Example 7); type: cell-based, human; settings: 3 days, shRNA + UnCas12f1 + gRNA pair F142/R52, qPCR, compared among shDCLRE1C-2, -3, -5, FIG. 10A
Experimental: Quantitative real-time PCR was used to quantify genomic DNA. Primer sequences were designed for each of the E51 internal regions where large-scale deletion occurs. For qPCR, 20 ng of gDNA was amplified with the KAPA SYBR FAST qPCR kit (KAPA BIOSYSTEM, Wilmington, MA, USA) using the real-time cycler Quantstudio (THERMO FISHER SCIENTIFIC).
(§5) The efficiency of large-scale deletion was analyzed by qPCR 3 days after treatment of HEK293T cells with the selected shRNA (shDCLRE1C-2, -3, or -5)+UnCas12f1 and a pair of gRNA (F142/R52), and the results are shown in FIG. 10A.
For shDCLRE1C and shXRCC6 among the shRNAs selected in Example 4, experiments were conducted in the same manner as in Example 7.1 using the two shRNAs alone, in combination, or one shRNA thereof in two copies, to analyze the efficiency of large-scale deletion of E51.

[5] = system: DCLRE1C; test: DCLRE1C mRNA level by qPCR in HEK293T cells (Example 7.1); type: cell-based, human; settings: 3 days, compared among shDCLRE1C-2, -3, -5, FIG. 10B
Experimental: as §1, §5

[6] = system: Dystrophin Exon 51, E51; test: Whole genome sequencing (WGS) analysis of E51 deletion efficiency (Example 8); type: cell-based, human; settings: HEK293T cells, UnCas12f1 + gRNA pair F142/R52, 5 days after transfection, shRNA in two copies (shDC-3×2), FIG. 11
Experimental: HEK293T cells were transfected with UnCas12f1, a pair of gRNA (F142/R52), and shRNA, and then harvested 5 days after transfection. Genomic DNA was purified using a gDNA prep kit (Maxwell® RSC Cultured Cells DNA, PROMEGA, AS1620). 400 to 500 ng of genomic DNA was fragmented, and libraries were prepared using the MGIEasy FS DNA Library Prep. Kit (MGI Tech) according to the manufacturer's instructions. The libraries were then subjected to WGS using DNBSEQ-T7 (MGI Tech). Sequence reads were mapped to the human genome reference standard, GRCh38. Large-scale deletion efficiency was analyzed by counting reads mapped to the deleted region between a pair of gRNAs, and counts per million (CPM) was calculated. The percentage of deletion was calculated based on the difference in CPM between the sample and the control.
HEK293T cells were transfected with UnCas12f1, a pair of gRNA (F142/R52), and shRNA, and then harvested 5 days after transfection. gDNA was prepared therefrom for WGS that is performed to verify large-scale deletion efficiency. To compare the degree of deletion between the two gRNAs which is induced at both sides of E51, reads were mapped to the reference standard sequence and counting was performed within the deleted region. The data were presented as CPM (Count Per Million) along with each read count. […]

[7] = system: DCLRE1C; test: qRT-PCR of mRNA expression in AC16 cells transfected with candidate shRNAs (Example 12.1); type: cell-based, human; settings: 5 ug, 3 days, among the five shDCLRE1C shRNAs, FIG. 17
Experimental: as §1
Candidate shRNAs for six genes known to be involved in the NHEJ repair pathway were transfected into previously prepared AC16 cells at a dose of 5 ug, and incubation was performed for 3 days. Then, the cells were harvested and qRT-PCR was used to measure the mRNA expression levels of the genes. The results are shown in FIG. 15 (ATM1 and XRCC4), FIG. 16 (XLF-1 and XRCC6), and FIG. 17 (LIG4 and DCLRE1C). From the results, the optimal shRNAs were selected. Scrambled indicates the control shRNA.

[8] = system: DCLRE1C; test: qRT-PCR of shRNA-mediated inhibition of NHEJ component gene expression (Example 3); type: cell-based, human; settings: AC16 cells, 5 μg shRNA plasmid, 3 days after transfection, FIG. 6
Experimental: as §1, §2

[9] = system: Artemis; test: Western blot of shRNA-mediated inhibition of NHEJ component gene expression (Example 4); type: cell-based, human; settings: AC16 cells, conditions as Example 3, FIG. 7
Experimental: as §3, §4

[10] = system: Dystrophin Exon 51, E51; test: E51 deletion by UnCas12f1 with shRNA, agarose gel of PCR-amplified E51 region and band intensity analysis (Examples 5, 6); type: cell-based, human; settings: HEK 293T cells, Image J analysis of FIG. 8, comparison between shRNAs, FIG. 9
Experimental: A pair of guide RNAs for the targets F142 and R52 as shown in Table 14 was used to induce E51 deletion. In order to accurately find the optimal shRNA for a large-scale deletion strategy, comparison of the deletion efficiency altered by the selected shRNAs was conducted in HEK 293T cells. The E51 deletion efficiency was measured on an agarose gel in which the PCR-amplified E51 region was decomposed. From the results, it can be seen that treatment with shRNA increases the E51 deletion efficiency caused by UnCas12f1 .
To compare the large-scale deletion efficiency between various treatments with shRNA, intensity analysis was conducted on the deletion band (Del) and the non-deletion band (WT) in FIG. 8, and the relative values were calculated using Image J software.

[11] = system: XRCC6; test: qRT-PCR of shRNA-mediated inhibition of NHEJ component gene expression (Example 3); type: cell-based, human; settings: AC16 cells, 5 μg shRNA plasmid, 3 days after transfection, FIG. 6
Experimental: as §1, §2

[12] = system: KU70; test: Western blot of shRNA-mediated inhibition of NHEJ component gene expression (Example 4); type: cell-based, human; settings: AC16 cells, conditions as Example 3, FIG. 7
Experimental: as §3, §4

[13] = system: XLF; test: qRT-PCR of shRNA-mediated inhibition of NHEJ component gene expression (Example 3); type: cell-based, human; settings: AC16 cells, 5 μg shRNA plasmid, 3 days after transfection, FIG. 6
Experimental: as §1, §2

[14] = system: XLF; test: Western blot of shRNA-mediated inhibition of NHEJ component gene expression (Example 4); type: cell-based, human; settings: AC16 cells, conditions as Example 3, FIG. 7
Experimental: as §3, §4

[15] = system: LIG4; test: qRT-PCR of shRNA-mediated inhibition of NHEJ component gene expression (Example 3); type: cell-based, human; settings: AC16 cells, 5 μg shRNA plasmid, 3 days after transfection, FIG. 6
Experimental: as §1, §2

[16] = system: DNA ligase IV; test: Western blot of shRNA-mediated inhibition of NHEJ component gene expression (Example 4); type: cell-based, human; settings: AC16 cells, conditions as Example 3, FIG. 7
Experimental: as §3, §4

[17] = system: ATM1; test: qRT-PCR of shRNA-mediated inhibition of NHEJ component gene expression (Example 3); type: cell-based, human; settings: AC16 cells, 5 μg shRNA plasmid, 3 days after transfection, FIG. 6
Experimental: as §1, §2

[18] = system: ATM1; test: Western blot of shRNA-mediated inhibition of NHEJ component gene expression (Example 4); type: cell-based, human; settings: AC16 cells, conditions as Example 3, FIG. 7

## GAAUCCACCUUUGUUUCUGA (sense GAAUCCACCUUGUUUCUGA; part of shRNA hairpin, further chemistry not given here) [XRCC4-3]
[1]
  mRNA expression of NHEJ component gene XRCC4: most effective
[2]
  inhibition of XRCC4 expression by Western blot: effectively reduced expression of the target genes

## GAGCUGGGAGUUCAGGUUCA (listed as RNA, chemistry not given here) [shDclre1c-12]
[3]
  Dclre1c mRNA level: greatest decrease

## GCACCGCAAGCCUUCUAUA (listed as RNA, chemistry not given here) [shDclre1c-3]
[4]
  deletion level (efficiency of large-scale deletion of E51): highest deletion level
[5]
  DCLRE1C mRNA level: most effectively downregulates DCLRE1C expression
[6]
  mapped reads in the deleted region (CPM): decreased

## GCAGAAUUCUUCCCAGUCAUUCAAGAGAUGACUGGGAAGAAUUCUGC (short hairpin RNA, further chemistry not given here) [shDCLRE1C5]
[7]
  mRNA expression inhibition efficiency (DCLRE1C): highest mRNA expression inhibition efficiency

## GCAGAGCUCUCCUUUCACA (sense GCAGAGCUCUCGUUUCACA; part of shRNA hairpin, further chemistry not given here) [DCLRE1C-3]
[8]
  mRNA expression of NHEJ component gene DCLRE1C: most effective
[9]
  inhibition of DCLRE1C (Artemis) expression by Western blot: effectively reduced expression of the target genes
[10]
  large-scale deletion efficiency (relative intensity of deletion band vs non-deletion band): most effective

## GCAGAGCUCUCGUUUCACAUUCAAGAGAUGUGAAACGAGAGCUCUGC (short hairpin RNA, further chemistry not given here) [shDCLRE1C3]
[7]
  mRNA expression inhibition efficiency (DCLRE1C): highest mRNA expression inhibition efficiency

## GCAGCAUUGUGCAGAUACA (listed as RNA, chemistry not given here) [XRCC6-1]
[11]
  mRNA expression of NHEJ component gene XRCC6: most effective
[12]
  inhibition of XRCC6 (KU70) expression by Western blot: effectively reduced expression of the target genes

## GCAUGAGUCUGGCAUUACA (listed as RNA, chemistry not given here) [XLF-1]
[13]
  mRNA expression of NHEJ component gene XLF: most effective
[14]
  inhibition of XLF expression by Western blot: effectively reduced expression of the target genes

## GCAUGAUCCUUCUGUAGGA (listed as RNA, chemistry not given here) [LIG4-5]
[15]
  mRNA expression of NHEJ component gene LIG4: most effective
[16]
  inhibition of LIG4 (DNA ligase IV) expression by Western blot: effectively reduced expression of the target genes

## GGACAAAGCUGACUACAGAUUCAAGAGAUCUGUAGUCAGCUUUGUCC (short hairpin RNA, further chemistry not given here) [shDCLRE1C2]
[7]
  mRNA expression inhibition efficiency (DCLRE1C): highest mRNA expression inhibition efficiency

## GGAGCUGAUUGUAGCAACA (listed as RNA, chemistry not given here) [ATM-3]
[17]
  mRNA expression of NHEJ component gene ATM: most effective
[18]
  inhibition of ATM expression by Western blot: effectively reduced expression of the target genes
